According to patent publication US20230127944A1, “BROAD-SPECTRUM CARBAPENEMS” (priority 2019, published 2023):

Test system: E. coli ATCC 25922 (wild-type/QC strain)
Test: broth microdilution MIC assay, E. coli 25922
Type: cell-based
Conditions: Escherichia coli, ATCC25922; read-out: MIC, E. coli 25922
Summary of the method: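 Following CLSI methods, 2-fold compound dilutions are challenged with 5×10^5 CFU/mL bacteria in cation-supplemented Mueller-Hinton broth. After 16-20 hours at 37° C, the lowest well showing no bacterial growth is taken as the MIC.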

C[C@@H](O)[C@H]1C(=O)N2C(C(=O)O)=C(S[C@@H]3CCN(C[C@H]4CC[C@H](NC(=N)N)CC4)C3)[C@H](C)[C@H]12 [Example 28, (4R,5S,6S)-3-(((R)-1-(((1R,4R)-4-guanidinocyclohexyl)methyl)pyrrolidin-3-yl)thio)-6-((R)-1-hydroxyethyl)-4-methyl-7-oxo-1-azabicyclo[3.2.0]hept-2-ene-2-carboxylic acid]
MIC: < 1 mg/L
